{"source": "paper PMC6429214", "about": "“Design, Synthesis and Biological Evaluation of Isoxazole-Based CK1 Inhibitors Modified with Chiral Pyrrolidine Scaffolds” (Molecules, 2019)", "experiment_in_all_cases": "33PanQinase panel", "assay_type_in_all_cases": "biochemical", "key": {"[1]": {"target": "T1, TTBK1 (Homo sapiens, UniProt Q5TCY1)", "T1 construct": "purchased ProQinase", "T1 sequence (Q5TCY1 whole entry)": "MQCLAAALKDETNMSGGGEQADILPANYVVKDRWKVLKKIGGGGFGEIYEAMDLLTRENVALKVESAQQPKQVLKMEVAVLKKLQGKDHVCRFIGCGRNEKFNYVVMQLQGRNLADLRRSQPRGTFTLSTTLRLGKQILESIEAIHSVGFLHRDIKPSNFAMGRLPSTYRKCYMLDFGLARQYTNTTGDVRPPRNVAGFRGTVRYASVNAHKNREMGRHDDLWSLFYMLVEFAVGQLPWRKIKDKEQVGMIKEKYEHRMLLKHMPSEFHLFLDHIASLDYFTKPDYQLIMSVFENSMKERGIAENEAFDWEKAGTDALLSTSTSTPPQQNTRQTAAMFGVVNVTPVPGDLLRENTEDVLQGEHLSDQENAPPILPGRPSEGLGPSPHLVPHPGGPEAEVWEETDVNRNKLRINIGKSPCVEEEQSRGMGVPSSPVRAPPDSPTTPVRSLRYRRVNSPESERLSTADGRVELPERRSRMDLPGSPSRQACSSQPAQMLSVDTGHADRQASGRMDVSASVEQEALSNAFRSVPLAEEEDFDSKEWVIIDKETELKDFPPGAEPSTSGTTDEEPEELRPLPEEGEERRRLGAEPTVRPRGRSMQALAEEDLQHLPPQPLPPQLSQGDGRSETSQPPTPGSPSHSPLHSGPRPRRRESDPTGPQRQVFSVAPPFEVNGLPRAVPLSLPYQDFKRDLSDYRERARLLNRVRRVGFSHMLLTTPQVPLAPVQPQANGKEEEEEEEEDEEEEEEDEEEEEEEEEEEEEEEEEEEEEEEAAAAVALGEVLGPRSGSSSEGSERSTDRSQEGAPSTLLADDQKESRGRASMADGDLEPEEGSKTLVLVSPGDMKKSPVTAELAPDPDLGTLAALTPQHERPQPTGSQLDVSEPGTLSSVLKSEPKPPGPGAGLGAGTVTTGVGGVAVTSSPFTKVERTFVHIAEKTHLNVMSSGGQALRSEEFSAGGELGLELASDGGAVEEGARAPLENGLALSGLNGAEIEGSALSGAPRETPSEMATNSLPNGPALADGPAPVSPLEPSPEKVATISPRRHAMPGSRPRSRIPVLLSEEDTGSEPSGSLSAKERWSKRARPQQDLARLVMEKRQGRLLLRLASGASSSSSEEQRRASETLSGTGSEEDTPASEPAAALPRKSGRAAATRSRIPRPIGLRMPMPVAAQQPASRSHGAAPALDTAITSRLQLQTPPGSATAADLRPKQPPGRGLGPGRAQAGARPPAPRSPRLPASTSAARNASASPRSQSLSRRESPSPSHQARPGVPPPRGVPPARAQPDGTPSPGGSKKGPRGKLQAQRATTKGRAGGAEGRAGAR", "details": "TTBK1, 1 µM; read-out: Residual Activity (%)", "summary_of_the_method": "(§1)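 Radiometric 33PanQinase activity assay, compound tested once at 1 µM, 1% DMSO final. Readout: % residual activity vs DMSO control.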"}, "[2]": {"target": "T2, MAP3K9 (Homo sapiens, UniProt P80192)", "T2 construct": "purchased ProQinase", "T2 sequence (P80192 whole entry)": "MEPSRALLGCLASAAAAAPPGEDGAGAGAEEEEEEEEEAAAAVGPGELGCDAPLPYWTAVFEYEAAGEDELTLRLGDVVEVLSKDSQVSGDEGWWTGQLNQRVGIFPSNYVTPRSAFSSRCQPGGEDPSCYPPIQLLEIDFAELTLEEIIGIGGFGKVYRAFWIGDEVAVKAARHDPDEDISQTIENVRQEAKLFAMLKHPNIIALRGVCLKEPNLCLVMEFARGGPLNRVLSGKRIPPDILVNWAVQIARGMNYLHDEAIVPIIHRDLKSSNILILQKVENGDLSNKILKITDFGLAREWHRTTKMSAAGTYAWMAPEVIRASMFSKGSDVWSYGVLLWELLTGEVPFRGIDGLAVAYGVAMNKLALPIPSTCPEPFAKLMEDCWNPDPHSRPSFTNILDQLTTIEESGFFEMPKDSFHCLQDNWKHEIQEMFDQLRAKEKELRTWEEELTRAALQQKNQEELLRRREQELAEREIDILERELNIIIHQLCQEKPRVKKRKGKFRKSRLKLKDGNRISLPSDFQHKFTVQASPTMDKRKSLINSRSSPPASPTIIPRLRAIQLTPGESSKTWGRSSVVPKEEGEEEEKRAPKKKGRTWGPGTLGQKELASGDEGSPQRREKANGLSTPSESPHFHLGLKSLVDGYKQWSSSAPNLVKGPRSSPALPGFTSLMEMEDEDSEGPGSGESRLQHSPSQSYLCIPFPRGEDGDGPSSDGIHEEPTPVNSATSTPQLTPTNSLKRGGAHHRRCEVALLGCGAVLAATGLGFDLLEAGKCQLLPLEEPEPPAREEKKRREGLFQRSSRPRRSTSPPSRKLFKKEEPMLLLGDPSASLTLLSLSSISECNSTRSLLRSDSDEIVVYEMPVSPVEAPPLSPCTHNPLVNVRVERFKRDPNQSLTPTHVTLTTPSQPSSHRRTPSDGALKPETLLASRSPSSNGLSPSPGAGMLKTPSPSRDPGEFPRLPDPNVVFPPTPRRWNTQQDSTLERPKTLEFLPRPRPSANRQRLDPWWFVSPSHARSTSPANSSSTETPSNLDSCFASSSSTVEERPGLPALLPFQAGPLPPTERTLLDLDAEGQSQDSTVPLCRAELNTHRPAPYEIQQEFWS", "details": "MAP3K9, 1 µM; read-out: Residual Activity (%)", "summary_of_the_method": "as §1"}, "[3]": {"target": "T3, mTOR (Homo sapiens, UniProt P42345)", "T3 construct": "purchased ProQinase", "details": "read-out: Residual Activity (%)", "summary_of_the_method": "as §1"}, "[4]": {"target": "T4, CHK2 (Homo sapiens, UniProt O96017)", "T4 construct": "purchased ProQinase", "details": "CHK2, 1 µM; read-out: Residual Activity (%)", "summary_of_the_method": "as §1"}, "[5]": {"target": "T5, ASK1 (Homo sapiens, UniProt Q99683)", "T5 construct": "purchased ProQinase", "T5 sequence (Q99683 whole entry)": "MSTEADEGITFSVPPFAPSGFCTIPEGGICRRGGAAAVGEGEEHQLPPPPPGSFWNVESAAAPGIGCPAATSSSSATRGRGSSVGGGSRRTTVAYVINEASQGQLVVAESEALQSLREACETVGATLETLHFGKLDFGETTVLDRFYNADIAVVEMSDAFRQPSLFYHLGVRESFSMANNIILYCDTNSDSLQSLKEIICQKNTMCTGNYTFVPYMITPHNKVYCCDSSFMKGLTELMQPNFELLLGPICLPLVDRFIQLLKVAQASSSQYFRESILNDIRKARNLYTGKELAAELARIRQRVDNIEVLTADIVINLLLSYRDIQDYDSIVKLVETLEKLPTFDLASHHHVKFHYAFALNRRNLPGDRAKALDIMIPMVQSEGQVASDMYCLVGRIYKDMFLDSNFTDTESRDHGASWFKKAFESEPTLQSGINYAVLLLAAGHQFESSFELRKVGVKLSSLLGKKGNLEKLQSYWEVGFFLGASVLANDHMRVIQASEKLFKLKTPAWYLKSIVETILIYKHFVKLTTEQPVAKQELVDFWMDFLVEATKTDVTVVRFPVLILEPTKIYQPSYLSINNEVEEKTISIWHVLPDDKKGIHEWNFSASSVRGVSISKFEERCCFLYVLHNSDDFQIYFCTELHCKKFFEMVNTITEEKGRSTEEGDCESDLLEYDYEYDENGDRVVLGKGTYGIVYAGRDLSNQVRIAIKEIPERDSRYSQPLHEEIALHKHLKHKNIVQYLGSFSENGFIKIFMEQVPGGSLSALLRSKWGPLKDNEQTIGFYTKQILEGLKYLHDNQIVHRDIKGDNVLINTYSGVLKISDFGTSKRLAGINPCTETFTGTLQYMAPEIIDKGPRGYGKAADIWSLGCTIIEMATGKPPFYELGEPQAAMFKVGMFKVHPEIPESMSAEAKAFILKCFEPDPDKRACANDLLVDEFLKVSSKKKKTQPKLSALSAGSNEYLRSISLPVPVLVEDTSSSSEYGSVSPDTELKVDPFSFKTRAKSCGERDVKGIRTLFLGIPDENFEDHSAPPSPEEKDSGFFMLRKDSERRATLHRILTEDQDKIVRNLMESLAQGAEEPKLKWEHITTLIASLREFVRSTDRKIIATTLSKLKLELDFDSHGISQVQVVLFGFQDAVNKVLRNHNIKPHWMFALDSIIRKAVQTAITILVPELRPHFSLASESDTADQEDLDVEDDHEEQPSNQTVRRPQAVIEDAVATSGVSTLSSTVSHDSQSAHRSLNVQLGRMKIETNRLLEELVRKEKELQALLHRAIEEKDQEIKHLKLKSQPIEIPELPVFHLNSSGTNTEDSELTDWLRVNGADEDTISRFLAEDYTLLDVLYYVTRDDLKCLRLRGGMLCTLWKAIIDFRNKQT", "details": "ASK1, 1 µM; read-out: Residual Activity (%)", "summary_of_the_method": "as §1"}, "[6]": {"target": "T6, GRK7 (Homo sapiens, UniProt Q8WTQ7)", "T6 construct": "purchased ProQinase", "details": "GRK7, 1 µM; read-out: Residual Activity (%)", "summary_of_the_method": "as §1"}, "[7]": {"target": "T7, WNK1 (Homo sapiens, UniProt Q9H4A3)", "T7 construct": "purchased ProQinase", "details": "WNK1, 1 µM; read-out: Residual Activity (%)", "summary_of_the_method": "as §1"}, "[8]": {"target": "T8, PKC-nu (Homo sapiens, UniProt O94806)", "T8 construct": "purchased ProQinase", "details": "read-out: Residual Activity (%)", "summary_of_the_method": "as §1"}, "[9]": {"target": "T9, ROCK2 (Homo sapiens, UniProt O75116)", "T9 construct": "purchased ProQinase", "details": "ROCK2, 1 µM; read-out: Residual Activity (%)", "summary_of_the_method": "as §1"}, "[10]": {"target": "T10, PAK1 (Homo sapiens, UniProt Q13153)", "T10 construct": "purchased ProQinase", "details": "PAK1, 1 µM; read-out: Residual Activity (%)", "summary_of_the_method": "as §1"}, "[11]": {"target": "T11, VEGF-R2 (Homo sapiens, UniProt P35968)", "T11 construct": "purchased ProQinase", "T11 sequence (P35968 20-1356)": "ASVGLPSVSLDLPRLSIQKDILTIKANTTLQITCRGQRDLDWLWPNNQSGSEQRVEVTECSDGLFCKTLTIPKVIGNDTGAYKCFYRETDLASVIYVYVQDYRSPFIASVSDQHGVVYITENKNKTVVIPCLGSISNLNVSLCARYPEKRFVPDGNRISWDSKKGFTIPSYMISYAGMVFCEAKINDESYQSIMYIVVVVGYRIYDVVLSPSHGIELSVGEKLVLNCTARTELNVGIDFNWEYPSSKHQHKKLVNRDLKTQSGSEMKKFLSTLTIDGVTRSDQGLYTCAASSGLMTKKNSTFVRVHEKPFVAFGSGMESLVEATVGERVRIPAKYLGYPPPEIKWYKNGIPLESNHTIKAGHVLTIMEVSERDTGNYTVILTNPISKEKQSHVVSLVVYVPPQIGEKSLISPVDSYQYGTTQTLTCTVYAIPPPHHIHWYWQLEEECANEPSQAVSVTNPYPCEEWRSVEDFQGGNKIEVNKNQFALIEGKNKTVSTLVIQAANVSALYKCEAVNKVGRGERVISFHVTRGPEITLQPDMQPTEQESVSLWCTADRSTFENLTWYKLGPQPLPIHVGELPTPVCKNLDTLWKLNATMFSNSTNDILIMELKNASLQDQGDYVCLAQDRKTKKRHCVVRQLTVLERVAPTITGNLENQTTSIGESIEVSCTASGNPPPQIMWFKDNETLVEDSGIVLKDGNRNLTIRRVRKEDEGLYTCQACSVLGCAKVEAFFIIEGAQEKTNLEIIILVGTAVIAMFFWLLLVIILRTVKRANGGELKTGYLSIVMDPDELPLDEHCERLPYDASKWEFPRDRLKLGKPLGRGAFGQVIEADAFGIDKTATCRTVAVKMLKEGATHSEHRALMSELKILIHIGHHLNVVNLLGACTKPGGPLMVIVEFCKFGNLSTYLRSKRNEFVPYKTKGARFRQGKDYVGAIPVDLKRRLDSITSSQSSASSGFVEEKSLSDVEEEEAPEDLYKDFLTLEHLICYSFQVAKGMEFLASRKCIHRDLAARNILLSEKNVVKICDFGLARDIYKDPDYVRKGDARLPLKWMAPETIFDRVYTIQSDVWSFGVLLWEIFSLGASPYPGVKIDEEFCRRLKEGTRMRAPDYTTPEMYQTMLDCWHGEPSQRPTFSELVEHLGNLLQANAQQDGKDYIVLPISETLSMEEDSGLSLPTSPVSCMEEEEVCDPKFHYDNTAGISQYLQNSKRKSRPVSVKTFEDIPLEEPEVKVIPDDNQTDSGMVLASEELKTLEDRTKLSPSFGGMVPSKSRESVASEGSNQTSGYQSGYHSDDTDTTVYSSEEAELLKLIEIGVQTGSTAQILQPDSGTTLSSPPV", "details": "VEGF-R2, 1 µM; read-out: Residual Activity (%)", "summary_of_the_method": "as §1"}, "[12]": {"target": "T12, MYLK (Homo sapiens, UniProt Q15746)", "T12 construct": "purchased ProQinase", "details": "read-out: Residual Activity (%)", "summary_of_the_method": "as §1"}, "[13]": {"target": "T13, CAMK2B (Homo sapiens, UniProt Q13554)", "T13 construct": "purchased ProQinase", "details": "read-out: Residual Activity (%)", "summary_of_the_method": "as §1"}, "[14]": {"target": "T14, DNA-PK (Homo sapiens, UniProt P78527)", "T14 construct": "purchased ProQinase", "details": "read-out: Residual Activity (%)", "summary_of_the_method": "as §1"}, "[15]": {"target": "T15, FLT3 (Homo sapiens, UniProt P36888)", "T15 construct": "purchased ProQinase", "details": "FLT3, 1 µM; read-out: Residual Activity (%)", "summary_of_the_method": "as §1"}, "[16]": {"target": "T16, TRK-B (Homo sapiens, UniProt Q16620)", "T16 construct": "purchased ProQinase", "details": "read-out: Residual Activity (%)", "summary_of_the_method": "as §1"}, "[17]": {"target": "T17, DMPK (Homo sapiens, UniProt Q09013)", "T17 construct": "purchased ProQinase", "details": "read-out: Residual Activity (%)", "summary_of_the_method": "as §1"}, "[18]": {"target": "T18, FGF-R2 (Homo sapiens, UniProt P21802)", "T18 construct": "purchased ProQinase", "details": "FGF-R2, 1 µM; read-out: Residual Activity (%)", "summary_of_the_method": "as §1"}, "[19]": {"target": "T19, MARK1 (Homo sapiens, UniProt Q9P0L2)", "T19 construct": "purchased ProQinase", "details": "MARK1, 1 µM; read-out: Residual Activity (%)", "summary_of_the_method": "as §1"}, "[20]": {"target": "T20, TRK-A (Homo sapiens, UniProt P04629)", "T20 construct": "purchased ProQinase", "details": "read-out: Residual Activity (%)", "summary_of_the_method": "as §1"}, "[21]": {"target": "T21, PIM2 (Homo sapiens, UniProt Q9P1W9)", "T21 construct": "purchased ProQinase", "details": "PIM2, 1 µM; read-out: Residual Activity (%)", "summary_of_the_method": "as §1"}, "[22]": {"target": "T22, MARK4 (Homo sapiens, UniProt Q96L34)", "T22 construct": "purchased ProQinase", "details": "MARK4, 1 µM; read-out: Residual Activity (%)", "summary_of_the_method": "as §1"}, "[23]": {"target": "T23, TAOK2 (Homo sapiens, UniProt Q9UL54)", "T23 construct": "purchased ProQinase", "details": "TAOK2, 1 µM; read-out: Residual Activity (%)", "summary_of_the_method": "as §1"}, "[24]": {"target": "T24, VRK1 (Homo sapiens, UniProt Q99986)", "T24 construct": "purchased ProQinase", "details": "VRK1, 1 µM; read-out: Residual Activity (%)", "protocol": "(§2) Figure 5 Dendrogram representation of the selectivity profile of 29d at a concentration of 1 μM in a panel of 320 wild-type kinases (ProQinase, Freiburg, Germany). The residual kinase activity was determined compared to DMSO control. Images were generated using TREEspot Software Tool, DISCOVERX CORPORATION 2010. […]\n(§3) Table S2. Selectivity profile of compound 29d. The inhibitor has been screened at a concentration of 1 µM over a panel of 320 wild-type protein kinases by ProQinase GmbH (Freiburg, Germany) using an activity-based radiometric 33PanQinase® assay. Results are presented as percentage of residual kinase activity relative to […]\n(§4) control. The final DMSO concentration was 1 % in each reaction-mix. Classification of protein kinase families refers to Manning et al. (Manning, G.; Whyte, D. B.; Martinez, R.; Hunter, T.; Sudarsanam, S. The Protein Kinase Complement of the Human Genome. Science 2002, 298, 1912–1934): AGC = containing PKA, PKG, PKC families; […] = containing Cdk, MAPK, GSK3, CLK families; STE = homologs of yeast sterile 7, sterile 11, sterile 20 kinases; TK = tyrosine kinase; TKL = tyrosine kinase-like.\n(§5) Kinase name Kinase family Residual Activity (%)"}, "[25]": {"target": "T25, ZAP70 (Homo sapiens, UniProt P43403)", "T25 construct": "purchased ProQinase", "details": "ZAP70, 1 µM; read-out: Residual Activity (%)", "protocol": "as §2, §3, §4, §5"}, "[26]": {"target": "T26, FRK (Homo sapiens, UniProt P42685)", "T26 construct": "purchased ProQinase", "details": "read-out: Residual Activity (%)", "protocol": "as §2, §3, §4, §5"}}, "data": [{"smiles": "COc1ccc(-c2cc(C(=O)Nc3cc(-c4c(-c5ccc(F)cc5)noc4C(C)C)ccn3)n(CC3NCC(O)C3O)c2)cc1", "note": "(centres unmarked) [29d]", "values": [{"measurement": "remaining activity at 1 µM", "setting": "[1]", "result": 104, "unit": "%"}, {"measurement": "remaining activity at 1 µM", "setting": "[2]", "result": 116, "unit": "%"}, {"measurement": "remaining activity at 1 µM", "setting": "[3]", "result": 127, "unit": "%"}, {"measurement": "remaining activity at 1 µM", "setting": "[4]", "result": 97, "unit": "%"}, {"measurement": "remaining activity at 1 µM", "setting": "[5]", "result": 107, "unit": "%"}, {"measurement": "remaining activity at 1 µM", "setting": "[6]", "result": 107, "unit": "%"}, {"measurement": "remaining activity at 1 µM", "setting": "[7]", "result": 90, "unit": "%"}, {"measurement": "remaining activity at 1 µM", "setting": "[8]", "result": 90, "unit": "%"}, {"measurement": "remaining activity at 1 µM", "setting": "[9]", "result": 92, "unit": "%"}, {"measurement": "remaining activity at 1 µM", "setting": "[10]", "result": 88, "unit": "%"}, {"measurement": "remaining activity at 1 µM", "setting": "[11]", "result": 110, "unit": "%"}, {"measurement": "remaining activity at 1 µM", "setting": "[12]", "result": 106, "unit": "%"}, {"measurement": "remaining activity at 1 µM", "setting": "[13]", "result": 102, "unit": "%"}, {"measurement": "remaining activity at 1 µM", "setting": "[14]", "result": 95, "unit": "%"}, {"measurement": "remaining activity at 1 µM", "setting": "[15]", "result": 87, "unit": "%"}, {"measurement": "remaining activity at 1 µM", "setting": "[16]", "result": 120, "unit": "%"}, {"measurement": "remaining activity at 1 µM", "setting": "[17]", "result": 93, "unit": "%"}, {"measurement": "remaining activity at 1 µM", "setting": "[18]", "result": 94, "unit": "%"}, {"measurement": "remaining activity at 1 µM", "setting": "[19]", "result": 80, "unit": "%"}, {"measurement": "remaining activity at 1 µM", "setting": "[20]", "result": 116, "unit": "%"}, {"measurement": "remaining activity at 1 µM", "setting": "[21]", "result": 84, "unit": "%"}, {"measurement": "remaining activity at 1 µM", "setting": "[22]", "result": 112, "unit": "%"}, {"measurement": "remaining activity at 1 µM", "setting": "[23]", "result": 105, "unit": "%"}, {"measurement": "remaining activity at 1 µM", "setting": "[24]", "result": 117, "unit": "%"}, {"measurement": "remaining activity at 1 µM", "setting": "[25]", "result": 116, "unit": "%"}, {"measurement": "remaining activity at 1 µM", "setting": "[26]", "result": 94, "unit": "%"}]}]}
